From patent US10858365B2, “Triazolo-pyrimidine compounds and uses thereof” (Dizal (Jiangsu) Pharmaceutical Co., Ltd., priority 2018, dated 2020) come the findings set out here.

The target of test [1] is T1, hA2a (Homo sapiens (Human), UniProt P29274). As to the kind of experiment: Radioligand binding to hA2a membrane ([3H]-CGS21680). Particulars: [3H]-CGS21680, 90 min at 25° C., read-out: Binding Affinity (IC50 nM) hA2a. How it is done:
(§1) Binding affinity and specificities of the compounds against different subtype of human adenosine receptors (hA1, hA2A, hA2B and hA3) were characterized with cell membrane chromatography binding analysis.
The compounds at different concentrations were incubate with hA2a membrane (from PerkinElmer) and [^3H]-CGS21680 for 90 min at 25° C., meanwhile 100 μL 0.5% PEI solution was added into […]-96 GF/B filter plate for 60 min at 4° C., then […]-96 GF/B filter plate was washed twice with 50 ml wash buffer, the membrane mix was transferred into […]-96 GF/B filter plate, and the filter plate was washed 4 times before incubated at 55° C. for 10 min. At last, […] ULTIMA GOLD was added into each well, and CPM was read by TopCount.
(§2) The empty boxes in the tables below indicate data not available.

Test [2] deals with T2, hA1 (Homo sapiens (Human), UniProt P30542). As to the kind of experiment: Radioligand binding to hA1 membrane ([3H]-DPCPX). Particulars: 50 min at 25° C., read-out: Binding Affinity (IC50 nM) hA1. As for the experimental part:
as §1
The compounds at different concentrations were incubate with hA1 membrane (from PerkinElmer) and [^3H]-8-Cyclopentyl-1,3-dipropylxanthine (DPCPX) for 50 min at 25° C., meanwhile 100 μL 0.5% PEI solution was added into […]-96 GF/B filter plate for 60 min at 4° C., then […]-96 GF/B filter plate was washed twice with 50 ml wash buffer, the membrane mix was transferred into […]-96 GF/B filter plate, and the filter plate was washed 4 times before incubated at 55° C. for 10 min. At last, […] ULTIMA GOLD was added into each well, and CPM was read by TopCount.
as §2

For test [3], the target named is T3, hA2b (Homo sapiens (Human), UniProt P29275). As to the kind of experiment: Radioligand binding to hA2b membrane ([3H]-DPCPX). Particulars: 60 min at 27° C., read-out: Binding Affinity (IC50 nM) hA2b. As for the experimental part: as §1
The compounds at different concentrations were incubate with hA2b membrane (from PerkinElmer) and [^3H]-DPCPX for 60 min at 27° C., and the binding reactions were stopped by rapid filtration through 0.5% BSA coated […]-96 GF/C plates using cell harvester. The filter plates were then washed three times with ice cold wash buffer, and dried at 37° C. for 120 min. At last, 50 µL of scintillation cocktail was added into each well, and CPM was read by TopCount.
as §2

Test [4] addresses T4, hA3 (Homo sapiens (Human), UniProt P0DMS8). As to the kind of experiment: Radioligand binding to hA3 membrane (AB-MECA radioligand). Particulars: 60 min at 27° C., read-out: Binding Affinity (IC50 nM) hA3. As for the experimental part:
as §1
The compounds at different concentrations were incubate with hA3 membrane (from PerkinElmer) and […] for 60 min at 27° C., the binding reactions were stopped by rapid filtration through 0.50% BSA coated […]-96 GF/C plates using cell harvester. The filter plates were then washed three times with ice cold wash buffer, and dried at 37° C. for 120 min. At last, 50 µL of scintillation cocktail was added into each well, and CPM was read by TopCount.
as §2

In test [5] the target is T1, hA2a. As to the kind of experiment: cAMP inhibition assay in hA2a/CHO cells. It counts as cell-based. To be noted: adenosine stimulation, read-out: cAMP & FLIPR IC50 (nM) hA2a. The procedure, abridged:
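CHO cells expressing human A2a, human A2b or mouse A2a, 5×10^3 cells/well, pre-incubated with compound 30 min at 37 °C, then stimulated with […] adenosine 30 min at 37 °C. cAMP read after 60 min room-temperature incubation with detection reagent.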

Test [6] concerns the target T3, hA2b. As to the kind of experiment: cAMP inhibition assay in hA2b/CHO cells. Particulars: adenosine stimulation, read-out: cAMP & FLIPR IC50 (nM) hA2b. The format is cell-based. How it is done:
(§3) hA2a/CHO, hA2b/CHO and mA2a/CHO (Genscript) were plated at 5×10^3 cells/well into 384-well polystyrene plates at the day of experiment. Compounds were pre-incubated with cells for 30 min at 37° C., 5% CO2. Then […] adenosine was added to the cells and incubated for 30 min at 37° C., 5% CO2. Detection reagent (CISBIO) was added and the plates were incubated for 60 min at room temperature. The signal was captured by Envision.

Another test deals with mA2a (Mus musculus (Mouse), UniProt Q60613). As to the kind of experiment: cAMP inhibition assay in mA2a/CHO cells. It counts as cell-based. Particulars: adenosine stimulation, read-out: cAMP & FLIPR IC50 (nM) mA2a. As for the experimental part:
as §3

Test [7] addresses T2, hA1. As to the kind of experiment: FLIPR inhibition assay in hADORA1/CHO (hA1 expressing) cells. It counts as cell-based. To be noted: hADORA1/CHO cells, FLIPR calcium, adenosine stimulation; read-out: cAMP & FLIPR IC50 (nM) hA1. An outline of the steps:
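CHO cells expressing human A1 were plated at 1×10^4 cells/well the day before, then loaded with FLIPR Calcium 5 dye for 60 min at 37 °C, 5% CO2. Compounds were added at several concentrations for 400 s before stimulation with […] adenosine. The calcium signal was recorded by FLIPR.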

Test [8] addresses T4, hA3. As to the kind of experiment: cAMP & FLIPR inhibition, hA3 over-expressing cell line. It counts as cell-based. The source says: FLIPR™ and cAMP inhibition activities of exemplary compounds in different adenosine receptor over-expressing cell lines are shown in Table 4 below.

T1 sequence (P29274 whole entry): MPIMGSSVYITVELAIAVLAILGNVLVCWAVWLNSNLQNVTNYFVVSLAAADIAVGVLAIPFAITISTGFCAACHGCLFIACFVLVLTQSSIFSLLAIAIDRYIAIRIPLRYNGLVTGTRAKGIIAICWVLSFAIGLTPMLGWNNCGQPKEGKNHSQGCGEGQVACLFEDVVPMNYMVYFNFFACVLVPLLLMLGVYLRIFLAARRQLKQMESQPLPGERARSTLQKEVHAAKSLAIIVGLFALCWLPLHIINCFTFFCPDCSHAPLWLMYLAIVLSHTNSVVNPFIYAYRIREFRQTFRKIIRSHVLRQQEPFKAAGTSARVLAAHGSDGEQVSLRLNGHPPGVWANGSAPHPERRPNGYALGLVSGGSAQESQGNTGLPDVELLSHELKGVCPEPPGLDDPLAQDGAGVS
T2 sequence (P30542 whole entry): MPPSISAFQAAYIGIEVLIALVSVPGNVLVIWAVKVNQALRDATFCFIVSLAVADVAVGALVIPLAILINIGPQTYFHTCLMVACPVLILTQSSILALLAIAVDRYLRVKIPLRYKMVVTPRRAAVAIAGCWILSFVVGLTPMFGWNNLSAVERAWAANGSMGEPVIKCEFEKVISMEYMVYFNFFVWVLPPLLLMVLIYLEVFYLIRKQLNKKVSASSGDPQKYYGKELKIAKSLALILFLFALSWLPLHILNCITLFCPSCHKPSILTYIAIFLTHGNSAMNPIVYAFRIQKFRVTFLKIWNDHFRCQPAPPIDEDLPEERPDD
T3 sequence (P29275 whole entry): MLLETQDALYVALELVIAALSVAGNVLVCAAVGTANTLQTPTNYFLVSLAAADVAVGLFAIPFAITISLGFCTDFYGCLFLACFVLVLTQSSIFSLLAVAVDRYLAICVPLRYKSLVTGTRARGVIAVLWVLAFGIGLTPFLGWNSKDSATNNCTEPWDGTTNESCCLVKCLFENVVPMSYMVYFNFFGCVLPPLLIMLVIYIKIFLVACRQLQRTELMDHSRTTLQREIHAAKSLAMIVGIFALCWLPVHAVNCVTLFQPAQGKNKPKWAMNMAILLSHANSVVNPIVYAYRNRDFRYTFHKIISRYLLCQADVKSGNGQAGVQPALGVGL
mA2a, sequence (Q60613 whole entry): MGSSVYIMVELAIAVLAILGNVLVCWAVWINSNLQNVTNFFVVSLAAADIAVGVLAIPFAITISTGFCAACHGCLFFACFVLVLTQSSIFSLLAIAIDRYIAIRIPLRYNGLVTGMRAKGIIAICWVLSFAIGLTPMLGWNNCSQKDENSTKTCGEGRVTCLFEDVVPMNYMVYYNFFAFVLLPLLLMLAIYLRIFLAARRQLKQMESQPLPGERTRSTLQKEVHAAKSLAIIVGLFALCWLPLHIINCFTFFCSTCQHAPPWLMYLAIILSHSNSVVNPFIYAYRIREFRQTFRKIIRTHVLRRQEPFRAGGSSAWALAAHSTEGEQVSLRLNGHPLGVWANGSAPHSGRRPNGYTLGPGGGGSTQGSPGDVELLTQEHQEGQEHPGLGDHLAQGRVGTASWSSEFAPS
T4 sequence (P0DMS8 whole entry): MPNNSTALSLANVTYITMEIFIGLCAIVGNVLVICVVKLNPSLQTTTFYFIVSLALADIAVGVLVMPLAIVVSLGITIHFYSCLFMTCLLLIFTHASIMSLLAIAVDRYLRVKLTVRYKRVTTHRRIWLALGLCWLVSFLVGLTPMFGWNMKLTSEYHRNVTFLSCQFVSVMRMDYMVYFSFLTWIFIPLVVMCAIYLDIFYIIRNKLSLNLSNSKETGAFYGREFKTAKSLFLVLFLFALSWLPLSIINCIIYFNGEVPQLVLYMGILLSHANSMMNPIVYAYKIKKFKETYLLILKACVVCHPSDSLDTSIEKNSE

Turning to `CN(C)c1cc(-c2c(-c3ccc(F)cc3)nc(N)n3nc(Cc4c(F)cccc4F)nc23)ccn1` [Example 10, 2-(2,6-difluorobenzyl)-8-(2-(dimethylamino)pyridin-4-yl)-7-(4-fluorophenyl)-[l,2,4]triazolo [l,5-c]pyrmidin-5-amine], the IC50 – broadly, the concentration that inhibits the measured activity by half – at hA2a [1] is 0.9 nM; at hA1 [2] it was 2.3 nM; on hA2b [3], 0.1 nM; on hA3 [4] it was 4770 nM; on hA2a [5], 0.2 nM; at hA2b [6] it was 4.4 nM. Moreover, the 50% inhibitory concentration (IC50) at mA2a is 0.4 nM; on hA1 [7], 42 nM; at hA3 [8] it was above 10000 nM.

Turning to `CC(C)n1cc(-c2c(-c3ccc(F)cc3)nc(N)n3nc(Cc4ncccc4F)nc23)ccc1=O` [Example 55, 5-(5-amino-7-(4-fluorophenyl)-2-((3-fluoropyridin-2-yl)methyl)-[1,2,4]triazolo[1,5-c]pyrimidin-8-yl)-1-isopropylpyridin-2(1H)-one], the IC50 is 4 nM at hA2a [1]; 0.1 nM at hA1 [2]; 2.8 nM on hA2b [3]; 7290 nM on hA3 [4]; 0.7 nM at hA2a [5]; 101 nM on hA2b [6]. For the same molecule, the IC50 on mA2a came to 0.8 nM; at hA1 [7] it was 13 nM.

As for `Cn1cc(-c2c(-c3ccc(F)cc3)nc(N)n3nc(Cc4ncccc4OC(F)F)nc23)ccc1=O` [Example 20, 5-(5-amino-2-[[3-(difluoromethoxy)pyridin-2-yl]methyl]-7-(4-fluorophenyl)-[1,2,4]triazolo[1,5-c]pyrimidin-8-yl)-1-methyl-1,2-dihydropyridin-2-one], the IC50 came out at 2.8 nM on hA2a [1]; 4 nM at hA1 [2]; 8.7 nM at hA2b [3]; 1070 nM on hA3 [4]; 3.5 nM at hA2a [5]; 84 nM at hA2b [6]. The half-maximal inhibitory concentration (IC50) on mA2a was 4.9 nM; at hA1 [7], 34 nM; at hA3 [8], above 10000 nM.

As to `Cn1cc(-c2c(-c3ccc(F)cc3)nc(N)n3nc(Cc4ncccc4F)nc23)ccc1=O` [Example 1, 5-(5-amino-7-(4-fluorophenyl)-2-((3-fluoropyridin-2-yl)methyl)-[1,2,4]triazolo[1,5-c]pyrimidin-8-yl)-1-methylpyridin-2(1H)-one], the IC50 on hA2a [1] worked out at 2.3 nM; at hA1 [2] it was 1.1 nM; on hA2b [3] it was 2.3 nM; at hA3 [4], 2870 nM; on hA2a [5], 4.7 nM; on hA2b [6] it was 117 nM. Also, the IC50 is 10 nM at mA2a, 8.5 nM at hA1 [7] and above 10000 nM against hA3 [8].

In the case of `CCn1cc(-c2c(-c3ccc(F)cc3)nc(N)n3nc(Cc4ncccc4F)nc23)ccc1=O` [Example 34, 5-(5-amino-7-(4-fluorophenyl)-2-((3-fluoropyridin-2-yl)methyl)-[1,2,4]triazolo[1,5-c]pyrimidin-8-yl)-1-ethylpyridin-2(1H)-one], the IC50 at hA2a [1] was 2.8 nM; on hA1 [2], 0.8 nM; at hA2b [3], 0.4 nM; at hA3 [4], 10000 nM; at hA2a [5] it was 2.1 nM; at hA2b [6], 58 nM. Moreover, the half-maximal inhibitory concentration (IC50) on mA2a was determined as 3.4 nM; on hA1 [7], 12 nM.
